Test results taken from patent US9833497B2, “Human originated EGF domain proteins and use of the same” (CHENGDU SOURCEBIO LIMITED-LIABILITY COMPANY, priority 2013, dated 2017).

Assays:
Format in all cases: cell-based
[1] = tested on: E. coli DH5α; experiment: Antibacterial activity: MIC and growth curve against E. coli DH5α in 96-well plate; conditions: minimal inhibitory concentration against E. coli DH5α; 96-well plate, 5×10^5 CFU/mL, 37° C., judged after 8 h
In short: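 MIC taken as lowest protein level with no bacterial growth, tracked by A600 every 30 min during 37 °C, 175 rpm culture. Two-fold protein series 50-12.5 μg/mL final, triplicate wells, against 5×10^5 CFU/mL of LB-washed mid-log cells.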

[2] = tested on: E. coli BL21; experiment: MIC against Gram-negative bacteria: E. coli BL21
In short: (§1)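 Bacteria grown in LB at 37° C to McFarland 0.5, resuspended and seeded at 5×10^5 CFU/mL in 96-well plates. Purified human EGF-domain proteins two-fold serially diluted, triplicate wells; cultured at 37° C, shaking 175 rpm. MIC = lowest protein concentration with no growth.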

[3] = tested on: Pseudomonas aeruginosa; experiment: MIC against Gram-negative bacteria: Pseudomonas aeruginosa
In short: as §1

[4] = tested on: Klebsiella pneumonia; experiment: MIC against Gram-negative bacteria: Klebsiella pneumonia
In short: as §1

[5] = tested on: Enterobacter cloacae; experiment: MIC against Gram-negative bacteria: Enterobacter cloacae
In short: as §1

[6] = tested on: Aeromonas hydrophila; experiment: MIC against Gram-negative bacteria: Aeromonas hydrophila
In short: as §1

[7] = tested on: Citrobacter diversus; experiment: MIC against Gram-negative bacteria: Citrobacter diversus
In short: as §1

[8] = tested on: Moraxella catarrhalis; experiment: MIC against Gram-negative bacteria: Moraxella catarrhalis
In short: as §1

[9] = tested on: Proteus mirabilis; experiment: MIC against Gram-negative bacteria: Proteus mirabilis
In short: as §1

[10] = tested on: Proteus vulgaris; experiment: MIC against Gram-negative bacteria: Proteus vulgaris
In short: as §1

[11] = tested on: Serratia marcescens; experiment: MIC against Gram-negative bacteria: Serratia marcescens
In short: as §1

[12] = 96-well plate, 5×10^5 CFU/mL, 37° C., 10 h
[13] = E. coli BL21, 96-well plate, 5×10^5 CFU/mL, 37° C., 10 h
[14] = Pseudomonas aeruginosa, 96-well plate, 5×10^5 CFU/mL, 37° C., 10 h
[15] = Klebsiella pneumonia, 96-well plate, 5×10^5 CFU/mL, 37° C., 10 h
[16] = Enterobacter cloacae, 96-well plate, 5×10^5 CFU/mL, 37° C., 10 h
[17] = Aeromonas hydrophila, 96-well plate, 5×10^5 CFU/mL, 37° C., 10 h
[18] = Citrobacter diversus, 96-well plate, 5×10^5 CFU/mL, 37° C., 10 h
[19] = Moraxella catarrhalis, 96-well plate, 5×10^5 CFU/mL, 37° C., 10 h
[20] = Proteus mirabilis, 96-well plate, 5×10^5 CFU/mL, 37° C., 10 h
[21] = Proteus vulgaris, 96-well plate, 5×10^5 CFU/mL, 37° C., 10 h
[22] = Serratia marcescens, 96-well plate, 5×10^5 CFU/mL, 37° C., 10 h
[23] = 10 h cultivation at 37° C., 5×10^5 CFU/mL, two-fold serial dilution

Q: “PRT556 (CQCSSPGVADDRCDPDTGQCRCRVGFEGATCDRCAPGYFHFPLCQL; listed as Homo sapiens)” was tested. Which MIC [1] did it give?
A: 25 µg/mL

Q: And the “MIC against E. coli BL21” value [2, 12]?
A: 50 µg/mL

Q: And the “MIC against P. aeruginosa” value [3, 12]?
A: 12.5 µg/mL

Q: And the “MIC against K. pneumonia” value [4, 12]?
A: 50 µg/mL

Q: What about the “MIC against E. cloacae” value [5, 12] of the same substance?
A: 12.5 µg/mL

Q: And the “MIC against A. hydrophila” value [6, 12]?
A: 50 µg/mL

Q: And the “MIC against C. diversus” value [7, 12]?
A: 25 µg/mL

Q: What about the “MIC against M. catarrhalis” value [8, 12] of the same substance?
A: 12.5 µg/mL

Q: And the “MIC against P. mirabilis” value [9, 12]?
A: 25 µg/mL

Q: What about the “MIC against P. vulgaris” value [10, 12] of the same substance?
A: 12.5 µg/mL

Q: What about the “MIC against S. marcescens” value [11, 12] of the same substance?
A: 25 µg/mL

Q: What does the source list for “PRT1259 (CAVNNGGCDRTCKDTATGVRCSCPVGFTLQPDGKTC; listed as Homo sapiens)”?
A: MIC [1]: 25 µg/mL; MIC against E. coli BL21 [2, 13]: 50 µg/mL; MIC against P. aeruginosa [3, 14]: 25 µg/mL; MIC against K. pneumonia [4, 15]: 12.5 µg/mL; MIC against E. cloacae [5, 16]: 25 µg/mL; MIC against A. hydrophila [6, 17]: 50 µg/mL; MIC against C. diversus [7, 18]: 12.5 µg/mL; MIC against M. catarrhalis [8, 19]: 50 µg/mL; MIC against P. mirabilis [9, 20]: 12.5 µg/mL; MIC against P. vulgaris [10, 21]: 50 µg/mL; MIC against S. marcescens [11, 22]: 12.5 µg/mL

Q: Which results are given for “PRT695 (DVDECHRVPPPCDLGRCENTPGSFLCVCPAGYQAAPHGASCQ; listed as Homo sapiens)”?
A: MIC [1]: 25 µg/mL; MIC E. coli BL21 [2, 12]: 12.5 µg/mL; MIC P. aeruginosa [3, 12]: 25 µg/mL; MIC K. pneumonia [4, 12]: 25 µg/mL; MIC E. cloacae [5, 12]: 12.5 µg/mL; MIC A. hydrophila [6, 12]: 25 µg/mL; MIC C. diversus [7, 12]: 50 µg/mL; MIC M. catarrhalis [8, 12]: 50 µg/mL; MIC P. mirabilis [9, 12]: 12.5 µg/mL; MIC P. vulgaris [10, 12]: 50 µg/mL; MIC S. marcescens [11, 12]: 12.5 µg/mL

Q: Which results are given for “PRT192 (CPGSGERRICSHHGVCSNEGKCICQPDWTGKDC; listed as Homo sapiens)”?
A: MIC [1]: 25 µg/mL; MIC (μg/mL) E. coli BL21 ([2]; E. coli BL21, 10 h cultivation at 37° C., 5×10^5 CFU/mL): 50 µg/mL; MIC (μg/mL) P. aeruginosa ([3]; P. aeruginosa, 10 h cultivation at 37° C., 5×10^5 CFU/mL): 25 µg/mL; MIC (μg/mL) K. pneumonia ([4]; K. pneumonia, 10 h cultivation at 37° C., 5×10^5 CFU/mL): 12.5 µg/mL; MIC (μg/mL) E. cloacae ([5]; E. cloacae, 10 h cultivation at 37° C., 5×10^5 CFU/mL): 25 µg/mL; MIC (μg/mL) A. hydrophila ([6]; A. hydrophila, 10 h cultivation at 37° C., 5×10^5 CFU/mL): 50 µg/mL; MIC (μg/mL) C. diversus ([7]; C. diversus, 10 h cultivation at 37° C., 5×10^5 CFU/mL): 25 µg/mL; MIC (μg/mL) M. catarrhalis ([8]; M. catarrhalis, 10 h cultivation at 37° C., 5×10^5 CFU/mL): 12.5 µg/mL; MIC (μg/mL) P. mirabilis ([9]; P. mirabilis, 10 h cultivation at 37° C., 5×10^5 CFU/mL): 25 µg/mL; MIC (μg/mL) P. vulgaris ([10]; P. vulgaris, 10 h cultivation at 37° C., 5×10^5 CFU/mL): 50 µg/mL; MIC (μg/mL) S. marcescens ([11]; S. marcescens, 10 h cultivation at 37° C., 5×10^5 CFU/mL): 12.5 µg/mL

Q: For “PRT929 (QIDECYSSPCLNDGRCIDLVNGYQCNCQPGTSGVNCE; listed as Homo sapiens)”, which MIC [1] is on record?
A: 100 µg/mL

Q: And the MIC ([2]; E. coli BL21, 10 h cultivation at 37° C.)?
A: 25 µg/mL

Q: And the MIC ([3]; P. aeruginosa, 10 h cultivation at 37° C.)?
A: 12.5 µg/mL

Q: And the MIC ([4]; K. pneumonia, 10 h cultivation at 37° C.)?
A: 25 µg/mL

Q: And the MIC ([5]; E. cloacae, 10 h cultivation at 37° C.)?
A: 50 µg/mL

Q: What about the MIC ([6]; A. hydrophila, 10 h cultivation at 37° C.) of the same substance?
A: 25 µg/mL

Q: And the MIC ([7]; C. diversus, 10 h cultivation at 37° C.)?
A: 12.5 µg/mL

Q: What about the MIC ([8]; M. catarrhalis, 10 h cultivation at 37° C.) of the same substance?
A: 50 µg/mL

Q: And the MIC ([9]; P. mirabilis, 10 h cultivation at 37° C.)?
A: 12.5 µg/mL

Q: And the MIC ([10]; P. vulgaris, 10 h cultivation at 37° C.)?
A: 50 µg/mL

Q: And the MIC ([11]; S. marcescens, 10 h cultivation at 37° C.)?
A: 12.5 µg/mL

Q: How did the MIC [1] turn out when “PRT1327 (EINPCLENHGGCDKNAECTQTGPNQAACNCLPAYTGDGKVCT; listed as Homo sapiens)” was run?
A: 25 µg/mL

Q: What about the “MIC against E. coli BL21” value [2, 13] of the same substance?
A: 12.5 µg/mL

Q: What about the “MIC against P. aeruginosa” value [3, 14] of the same substance?
A: 50 µg/mL

Q: What about the “MIC against K. pneumonia” value [4, 15] of the same substance?
A: 12.5 µg/mL

Q: And the “MIC against E. cloacae” value [5, 16]?
A: 50 µg/mL

Q: And the “MIC against A. hydrophila” value [6, 17]?
A: 12.5 µg/mL

Q: And the “MIC against C. diversus” value [7, 18]?
A: 12.5 µg/mL

Q: What about the “MIC against M. catarrhalis” value [8, 19] of the same substance?
A: 12.5 µg/mL

Q: What about the “MIC against P. mirabilis” value [9, 20] of the same substance?
A: 12.5 µg/mL

Q: What about the “MIC against P. vulgaris” value [10, 21] of the same substance?
A: 12.5 µg/mL

Q: And the “MIC against S. marcescens” value [11, 22]?
A: 25 µg/mL

Q: “PRT1155 (QSVSCLNNLCLHQSLCIPDQSFSYSCLCTLGWVGRYCE; listed as Homo sapiens)” was tested. Which MIC [1] did it give?
A: 25 µg/mL

Q: What about the “MIC E. coli BL21” value [2, 23] of the same substance?
A: 12.5 µg/mL

Q: And the “MIC P. aeruginosa” value [3, 23]?
A: 25 µg/mL

Q: And the “MIC K. pneumonia” value [4, 23]?
A: 12.5 µg/mL

Q: What about the “MIC E. cloacae” value [5, 23] of the same substance?
A: 12.5 µg/mL

Q: And the “MIC A. hydrophila” value [6, 23]?
A: 25 µg/mL

Q: And the “MIC C. diversus” value [7, 23]?
A: 12.5 µg/mL

Q: What about the “MIC M. catarrhalis” value [8, 23] of the same substance?
A: 25 µg/mL

Q: What about the “MIC P. mirabilis” value [9, 23] of the same substance?
A: 50 µg/mL

Q: What about the “MIC P. vulgaris” value [10, 23] of the same substance?
A: 25 µg/mL

Q: What about the “MIC S. marcescens” value [11, 23] of the same substance?
A: 12.5 µg/mL
